Experimental data from patent US20030156977A1, “Method for rapidly sterilizing a load” (priority 2000, published 2003).
Where “and” joins values, the source holds several entries; their conditions need not be identical. Identical values can stand only once. Like-named read-outs stand apart in the source and are kept apart here.

Key:
[1] = test system: Bacillus stearothermophilus spores
Experimental: The sterilization process was run under the following conditions:
The trays containing the inoculated coupons and the various loads were wrapped with sterilization wrap and sealed with sterilization tape.
The effectiveness of the sterilization process was determined by placing stainless steel coupons inoculated with >10^6 Bacillus stearothermophilus spores as biological indicators (BI's) into 3 mm×400 mm stainless steel lumens. The lumens were placed into double-wrapped sterilizer trays with the loads of medical instruments to be sterilized. At the end of the cycle, the BIs were recovered from the lumens, placed into tubes of TSB (Trypticase soy broth) medium and incubated at 55-60° C. for 14 days. The biological activity was then determined.
(§1) The pressure inside the chamber was also monitored as a function of time. After the completion of the sterilization cycle, the chamber was vented, the equipment was removed, and the inoculated coupons were tested for growth in the medium. […] The sterilization results and the summary of the various methods of analyzing the hydrogen concentration data are shown in Table 2 below.

[2] = for -Initial slope, k: 8.6 mg/L H2O2 injected, 6 trays, 20 min pre-plasma, first 50 seconds after maximum concentration
Experimental: as §1
The data were analyzed in various ways to determine whether a method could be found to quickly determine the suitability of the load for sterilization.
FIGS. 5-8 show graphs of ln(c/c0) versus time for a validation load (FIG. 5), a heavy load (FIG. 6), a heavy load with a new towel (FIG. 7), and a heavy load with an old towel (FIG. 8).
The initial slopes in Table 2 are recorded as the negative of the initial slopes for simplicity in recording the data.
The final concentration is measured at the end of the diffusion step 50, prior to evacuating and generating the post-injection plasma.

[3] = Group 7 validation loads with one towel
[4] = Group 8 validation loads with two towels

OO [hydrogen peroxide]
Fraction Positive BIs ([1]; Group 1: validation load, 8.6 or 9.3 mg/L H2O2 injected, 6 trays, 20 min pre-plasma): 0/10
BI's of all runs of the group ([1]; Group 1 validation loads): negative
Fraction Positive BIs ([1]; Group 2: heavy load, 1 filter, 8.6 mg/L H2O2 injected, 6 trays, 20 min pre-plasma): 0/10
Fraction Positive BIs ([1]; Group 2: heavy load, 2 filters, 8.6 mg/L H2O2 injected, 6 trays, 20 min pre-plasma): 0/10
Fraction Positive BIs ([1]; Group 2: heavy load, brass, 8.6 mg/L H2O2 injected, 6 trays, 20 min pre-plasma): 0/10
Fraction Positive BIs ([1]; Group 2: heavy load, mat, 8.6 mg/L H2O2 injected, 6 trays, 20 min pre-plasma): 0/10
Fraction Positive BIs ([1]; Group 2: heavy load, 8.6 mg/L H2O2 injected, 6 trays, 20 min pre-plasma): 1/10
Positive BI's, total of all runs of the group ([1]; Group 2 heavy loads): 1 of the 60
Fraction Positive BIs ([1]; Group 3: heavy load, 1 new towel, 8.6 mg/L H2O2 injected, 6 trays, 20 min pre-plasma): 6/10
Fraction Positive BIs ([1]; Group 3: heavy load, 2 new towels, 8.6 mg/L H2O2 injected, 6 trays, 20 min pre-plasma): 5/10
Fraction Positive BIs ([1]; Group 3: heavy load, 6/8 towel, 8.6 mg/L H2O2 injected, 6 trays, 20 min pre-plasma): 3/10
Positive BI's, total of all runs of the group ([1]; Group 3 heavy load/new towel runs): 14/30
Fraction Positive BIs ([1]; Group 4: heavy load, 1 old towel, 8.6 mg/L H2O2 injected, 6 trays, 20 min pre-plasma): 10/10
Positive BI's, total of all runs of the group ([1]; Group 4 heavy load/old towel runs): 20 of the 20
Fraction Positive BIs ([1]; Group 5: validation load, initial load temperature 5° C., 9.3 mg/L H2O2 injected, 4 trays, 15 min pre-plasma): 0/12
BI's of all runs of the group ([1]; Group 5 cold validation loads, 15 minutes of pre-plasma, 72 BI's): negative
Fraction Positive BIs ([1]; Group 6: validation load, initial load temperature 5° C., 9.3 mg/L H2O2 injected, 4 trays, no pre-plasma): 0/12
BI's of all runs of the group ([1]; Group 6 cold condensing validation loads, no pre-plasma): negative
Positive BI's, total of all runs of the group [1, 3]: 4/72
Positive BI's, total of all runs of the group [1, 4]: 3/73
Initial slope, average ([2]; Group 1 runs with the validation loads): 0.00983 s⁻¹
-Initial slope, k ([2]; Group 2: heavy load, 1 filter): 0.016 s⁻¹
-Initial slope, k ([2]; Group 2: heavy load, 2 filters): 0.017 s⁻¹
-Initial slope, k ([2]; Group 2: heavy load, brass): 0.012 s⁻¹
-Initial slope, k ([2]; Group 2: heavy load, mat): 0.013 s⁻¹
-Initial slope, k ([2]; Group 2: heavy load): 0.016 s⁻¹
Initial slope, average ([2]; Group 2 runs with the heavy loads): 0.0145 s⁻¹
Initial slopes, range over runs ([2]; Group 2 runs with the heavy loads (all variants)): 0.012 to 0.017 s⁻¹
-Initial slope, k ([2]; Group 3: heavy load, 1 new towel): 0.026 s⁻¹
-Initial slope, k ([2]; Group 3: heavy load, 2 new towels): 0.028 s⁻¹
-Initial slope, k ([2]; Group 3: heavy load, 6/8 towel): 0.019 s⁻¹
Initial slope, average ([2]; Group 3 runs with the heavy loads and new towel): 0.0243 s⁻¹
Initial slopes, range over runs ([2]; Group 3 runs with the heavy loads and new towel (all variants)): 0.019 to 0.028 s⁻¹
-Initial slope, k ([2]; Group 4: heavy load, 1 old towel): 0.039 s⁻¹ and 0.025 s⁻¹
Initial slope, average ([2]; Group 4 runs with the heavy loads and old towel): 0.032 s⁻¹
Initial slope, average ([2]; Group 5 runs with the cold validation loads and 15 minutes of pre-plasma): 0.0095 s⁻¹
Initial slope, average ([2]; Group 6 runs with the cold condensing validation loads with no pre-plasma): 0.0164 s⁻¹
Initial slope, average [2, 3]: 0.0195 s⁻¹
Initial slope, average [2, 4]: 0.028 s⁻¹
Initial slope by type of load ([2]; cold, condensing load): 0.016 s⁻¹
Initial slope by type of load ([2]; heavy load): 0.015 s⁻¹
Initial slope by type of load ([2]; heavy load with towel): > 0.020 s⁻¹
Initial slope by type of load ([2]; validation load): 0.010 s⁻¹
